Reference: patent US10005815B2, “Biologically cleavable tetrapeptide linking agents” (Arrowhead Madison Inc., priority 2015, dated 2018)
Non-standard residues stand in square brackets, D forms with d. Residues, ends and D or L forms follow the SMILES beside them. *: point of attachment. CH3O(CH2CH2O)11CH2CH2CO = COCCOCCOCCOCCOCCOCCOCCOCCOCCOCCOCCOCCC(=O)*; X1 = O=[N+]([O-])c1ccc(NCCN*)cc1; Cit = NC(=O)NCCC[C@H](N)C(=O)O

Assays:
Format in all cases: biochemical
rat liver S9 extract = test: Digestion with rat liver S9 extract; conditions: normalized to compound 23
Protocol: (§1) Proteolytic digestion experiments were carried out at a fixed substrate concentration (0.51 μmol) using liver lysosomal (enzyme) extract (0.45 μg/μL) in a 25 mM MES solution buffered to pH 5 containing 1% CHAPS and 1.8 mM DTT incubated at 37° C. Enzyme extract was activated in the presence of DTT for 15 minutes at 37° C. prior to addition of AENA labeled peptide substrates. At various time points, up to 26 h, 20 μL aliquots were removed and acidified to a pH of 3 with TFA. Analysis of fractions was performed using HPLC with a Aquasil C18 reverse-phase column (250×4.6, Thermofisher, Waltham, Mass.), monitored at 390 nm and 335 nm for AENA and EDANS respectively. Elution was performed with a gradient of acetonitrile and water buffered with 0.1% formic acid. Generation of unmodified reporter molecule was measured. To minimize freeze thaw cycles the lysosomal extract was dispensed into multiple aliquots prior to storage at −80° C. A new aliquot was employed for each study and used immediately upon thawing. Lysosomal extract was sourced from female Hans Wistar rats by differential density gradient centrifugation (Graham et al. 2000). Protein concentration of lysosomal extract was determined by standard BCA protein assay protocols. Compound 60 was used for normalization of velocity between experiments (Tables 2-4). […] Normalized sample velocity was calculated as: [(average compound 60 velocity[…]experimental compound 60 velocity)]×sample experimental velocity.
(§2) The observed rates of cleavage were not dependent on the source of proteolytic enzymes. The order of increasing velocity (23>30>37>42) was maintained when digested using commercially available rat and human liver S9 extract (Xenotech LLC, Lenexa, Kans.) (Table 5). Thus rates of cleavage are expected to be similar across different species and cell types.

human liver S9 extract = test: Digestion with human liver S9 extract; conditions: normalized to compound 23
Protocol: as §1, §2

[1] = system: liver lysosomal (enzyme) extract; test: Digestion assay with rat liver lysosomal extract; conditions: for Sample Velocity / Normalized Velocity: AENA substrates; for Sample Velocity: linear rate of reporter generation at <50% completion, pH 5, 37° C.; for Normalized Velocity: normalized with compound 60 velocity (average 123.8 nmol/h); for Relative Velocity, Lysosomal Extract: normalized to compound 23
Protocol: Various amino acid combinations, tetrapeptides, were used to link various first moieties (R^5) and an AENA report group second compound (R^6) to form assay substrates (substrates). Cleavage rate of the peptides were evaluated by analysis of digestion of the substrates in the presence of rat lysosomal extract.
Reporting groups were coupled to the C-terminus of the peptide substrates as described above for UV-vis monitoring to explore the influence of amino acid sequence on kinetics of peptide degradation by HPLC. N-(2-aminoethyl)-4-nitroaniline (AENA) or N-(aminoethyl)-5-napthylamine-1-sulfonic acid (EDANS) were used as reporting groups for HPLC monitoring as neither absorptivity nor lambda maximum were affected for either after cleavage from the peptide. The N-terminus of each peptide substrate was modified with either methoxy polyethylene glycol (PEG12) or N-acetyl galactosamine (NAG(OR)3) (FIG. 1).
Proteolytic digestion experiments were carried out at a fixed substrate concentration (0.51 μmol) using liver lysosomal (enzyme) extract (0.45 μg/μL) in a 25 mM MES solution buffered to pH 5 containing 1% CHAPS and 1.8 mM DTT incubated at 37° C. Enzyme extract was activated in the presence of DTT for 15 minutes at 37° C. prior to addition of AENA labeled peptide substrates. At various time points, up to 26 h, 20 μL aliquots were removed and acidified to a pH of 3 with TFA. Analysis of fractions was performed using HPLC with a Aquasil C18 reverse-phase column (250×4.6, Thermofisher, Waltham, Mass.), monitored at 390 nm and 335 nm for AENA and EDANS respectively. Elution was performed with a gradient of acetonitrile and water buffered with 0.1% formic acid. Generation of unmodified reporter molecule was measured. To minimize freeze thaw cycles the lysosomal extract was dispensed into multiple aliquots prior to storage at −80° C. A new aliquot was employed for each study and used immediately upon thawing. Lysosomal extract was sourced from female Hans Wistar rats by differential density gradient centrifugation (Graham et al. 2000). Protein concentration of lysosomal extract was determined by standard BCA protein assay protocols. […]
Rate (also called velocity of degradation or velocity) was extrapolated during early linear turnover (Table 2). As used herein, rate is defined as the linear rate of reporting group generation at less than 50% completion (digestion rate was assumed to be linear at less than 50% completion). For substrates in which cleavage deviated from consecutive first order kinetics, the percent of reporting group liberated at the endpoint of digestion was used as a metric for comparison.

| Relative Velocity, RAT S9 Extract (rat liver S9 extract) | Relative Velocity, HUMAN S9 Extract (human liver S9 extract) | Sample Velocity [1] [nmol/h] | Normalized Velocity [1] [nmol/h] | % Released at Endpoint (21 hr) [1] [%] | Relative Velocity, Lysosomal Extract [1] | Compound |
| --- | --- | --- | --- | --- | --- | --- |
| 100.0 | 100.0 |  |  |  |  | COCCOCCOCCOCCOCCOCCOCCOCCOCCOCCOCCOCCC(=O)N[C@@H](Cc1ccccc1)C(=O)N[C@@H](CCCNC(N)=O)C(=O)N[C@@H](Cc1ccccc1)C(=O)N1CCC[C@H]1C(=O)NCCNc1ccc([N+](=O)[O-])cc1 [Compound 23, PEG12-FCitFP-AENA] ({CH3O(CH2CH2O)11CH2CH2CO}-F[Cit]FP-X1) |
| 0.6 | 1.7 |  |  |  |  | COCCOCCOCCOCCOCCOCCOCCOCCOCCOCCOCCOCCC(=O)N[C@@H](CCCNC(N)=O)C(=O)N[C@@H](C)C(=O)N1CCC[C@H]1C(=O)NCCNc1ccc([N+](=O)[O-])cc1 [Compound 42, PEG12-CitAP-AENA] |
| 3.3 | 7.1 | 11.8 | 13.5 | 44.2 | 7.0 | NAG(OAc)3-ACitAP- AENA [Compound 37] |
| 28.3 | 45.7 | 54.3 | 62.0 | 96.5 | 32.1 | NAG(OAc)3-FCitAP- AENA [Compound 30] |
